Calls of active or inactive are those of the source. No rule for the calls is given here.

The subject of this data set is rodent lifetime carcinogenesis bioassay, tumor incidence TD50. As to the kind of experiment: carcinogenic potency in animals, long-term in vivo studies, CPDB compilation (AID 1745844).

Take `Oc1ccccc1O`: the TD50 is 17300 mg/kg/day (mouse, strain B6C3F1, females, in feed, site: forestomach, lesion: papilloma, dosed 96 weeks, study length 96 weeks); 17300 mg/kg/day (mouse, strain B6C3F1, females, in feed, site: liver, lesion: hyperplastic nodule, dosed 96 weeks, study length 96 weeks); 471 mg/kg/day (mouse, strain B6C3F1, females, in feed, site: stomach, glandular, lesion: adenoma, dosed 96 weeks, study length 96 weeks); 2460 mg/kg/day (mouse, strain B6C3F1, males, in feed, site: all sites, lesion: lymphoma and leukemia, combined, dosed 96 weeks, study length 96 weeks); 16500 mg/kg/day (mouse, strain B6C3F1, males, in feed, site: forestomach, lesion: papilloma, dosed 96 weeks, study length 96 weeks); 16500 mg/kg/day (mouse, strain B6C3F1, males, in feed, site: lung, lesion: adenoma, dosed 96 weeks, study length 96 weeks). Besides, the TD50 (mouse, strain B6C3F1, males, in feed, site: stomach, glandular, lesion: adenoma, dosed 96 weeks, study length 96 weeks) was 165 mg/kg/day; the TD50 (rat, strain Crj:Wistar, males, in feed, site: forestomach, lesion: squamous-cell carcinoma, dosed 104 weeks, study length 104 weeks) stood at 6470 mg/kg/day; the TD50 (rat, strain Crj:Wistar, males, in feed, site: forestomach, lesion: squamous-cell papilloma, dosed 104 weeks, study length 104 weeks) is 3180 mg/kg/day; the TD50 (rat, strain Crj:Wistar, males, in feed, site: liver, lesion: hepatocellular carcinoma, dosed 104 weeks, study length 104 weeks) is 6470 mg/kg/day; the TD50 (rat, strain Crj:Wistar, males, in feed, site: liver, lesion: hyperplastic nodule, dosed 104 weeks, study length 104 weeks) came to 3180 mg/kg/day; the TD50 (rat, strain Crj:Wistar, males, in feed, site: stomach, glandular, lesion: adenocarcinoma, dosed 104 weeks, study length 104 weeks) was 200 mg/kg/day. Also, the TD50 runs as follows: (rat, strain Crj:Wistar, males, in feed, site: stomach, glandular, lesion: adenoma, dosed 104 weeks, study length 104 weeks) 64.5 mg/kg/day; (rat, strain Crj:Wistar, males, in feed, site: stomach, glandular, lesion: sarcoma, dosed 104 weeks, study length 104 weeks) 2080 mg/kg/day; (rat, strain F344/DuCrj, females, in feed, site: stomach, glandular, lesion: adenocarcinoma, dosed 104 weeks, study length 104 weeks) 490 mg/kg/day; (rat, strain F344/DuCrj, males, in feed, site: forestomach, lesion: carcinoma, in situ, dosed 51 weeks, study length 52 weeks) 833 mg/kg/day; (rat, strain F344/DuCrj, males, in feed, site: forestomach, lesion: papilloma, dosed 51 weeks, study length 52 weeks) 833 mg/kg/day; (rat, strain F344/DuCrj, males, in feed, site: forestomach, lesion: papilloma, dosed 104 weeks, study length 104 weeks) 2960 mg/kg/day. The TD50 was 833 mg/kg/day (rat, strain F344/DuCrj, males, in feed, site: forestomach, lesion: squamous-cell papilloma, dosed 51 weeks, study length 52 weeks); 3300 mg/kg/day (rat, strain F344/DuCrj, males, in feed, site: forestomach, lesion: squamous-cell papilloma, dosed 104 weeks, study length 104 weeks); 1180 mg/kg/day (rat, strain F344/DuCrj, males, in feed, site: pancreas, lesion: acinar-cell adenoma, dosed 104 weeks, study length 104 weeks); 3320 mg/kg/day (rat, strain F344/DuCrj, males, in feed, site: stomach, glandular, pyloric region, lesion: adenocarcinoma, dosed 104 weeks, study length 104 weeks); 43.5 mg/kg/day (rat, strain F344/DuCrj, males, in feed, site: stomach, glandular, pyloric region, lesion: adenoma, dosed 104 weeks, study length 104 weeks); 1940 mg/kg/day (rat, strain F344/DuCrj, males, in feed, site: stomach, glandular, pyloric region, lesion: sarcoma, dosed 104 weeks, study length 104 weeks). The TD50 was 387 mg/kg/day (rat, strain F344/DuCrj, males, in feed, site: stomach, glandular, lesion: adenocarcinoma, dosed 48 weeks, study length 96 weeks); 130 mg/kg/day (rat, strain F344/DuCrj, males, in feed, site: stomach, glandular, lesion: adenocarcinoma, dosed 51 weeks, study length 51 weeks); 206 mg/kg/day (rat, strain F344/DuCrj, males, in feed, site: stomach, glandular, lesion: adenocarcinoma, dosed 72 weeks, study length 72 weeks); 202 mg/kg/day (rat, strain F344/DuCrj, males, in feed, site: stomach, glandular, lesion: adenocarcinoma, dosed 72 weeks, study length 96 weeks); 141 mg/kg/day (rat, strain F344/DuCrj, males, in feed, site: stomach, glandular, lesion: adenocarcinoma, dosed 96 weeks, study length 96 weeks); 286 mg/kg/day (rat, strain F344/DuCrj, males, in feed, site: stomach, glandular, lesion: adenocarcinoma, dosed 104 weeks, study length 104 weeks). Besides, the TD50 (rat, strain Fischer 344, males, in drinking water, site: prostate, lesion: carcinoma, in situ, dosed 78 weeks, study length 78 weeks) was 236 mg/kg/day (inactive); the TD50 (rat, strain LEW/Crj (Lewis), males, in feed, site: stomach, glandular, lesion: adenocarcinoma, dosed 104 weeks, study length 104 weeks) is 166 mg/kg/day; the TD50 (rat, strain LEW/Crj (Lewis), males, in feed, site: stomach, glandular, lesion: adenoma, dosed 104 weeks, study length 104 weeks) was 64.5 mg/kg/day; the TD50 (rat, strain LEW/Crj (Lewis), males, in feed, site: stomach, glandular, lesion: sarcoma, dosed 104 weeks, study length 104 weeks) was 2080 mg/kg/day; the TD50 (rat, strain SD(Crj:CD) Sprague-Dawley, males, in feed, site: forestomach, lesion: squamous-cell carcinoma, dosed 104 weeks, study length 104 weeks) stood at 6470 mg/kg/day; the TD50 (rat, strain SD(Crj:CD) Sprague-Dawley, males, in feed, site: forestomach, lesion: squamous-cell papilloma, dosed 104 weeks, study length 104 weeks) is 983 mg/kg/day. The TD50 is 151 mg/kg/day (rat, strain SD(Crj:CD) Sprague-Dawley, males, in feed, site: stomach, glandular, lesion: adenocarcinoma, dosed 104 weeks, study length 104 weeks); 6470 mg/kg/day (rat, strain WKY/NCrj (Wistar), males, in feed, site: forestomach, lesion: squamous-cell papilloma, dosed 104 weeks, study length 104 weeks); 12400 mg/kg/day (rat, strain WKY/NCrj (Wistar), males, in feed, site: liver, lesion: several types, types named in the paper, dosed 104 weeks, study length 104 weeks); 2080 mg/kg/day (rat, strain WKY/NCrj (Wistar), males, in feed, site: stomach, glandular, lesion: adenocarcinoma, dosed 104 weeks, study length 104 weeks). For the same compound, the carcinogen call (rat, strain F344/DuCrj, males, in feed, site: stomach, glandular, lesion: adenoma, dosed 48 weeks, study length 96 weeks) was “positive”; the carcinogen call (rat, strain F344/DuCrj, males, in feed, site: stomach, glandular, lesion: adenoma, dosed 51 weeks, study length 51 weeks) was “positive”; the carcinogen call (rat, strain F344/DuCrj, males, in feed, site: stomach, glandular, lesion: adenoma, dosed 51 weeks, study length 52 weeks) is “positive”; the carcinogen call (rat, strain F344/DuCrj, males, in feed, site: stomach, glandular, lesion: adenoma, dosed 72 weeks, study length 72 weeks) is “positive”; the carcinogen call (rat, strain F344/DuCrj, males, in feed, site: stomach, glandular, lesion: adenoma, dosed 72 weeks, study length 96 weeks) is “positive”; the carcinogen call (rat, strain F344/DuCrj, males, in feed, site: stomach, glandular, lesion: adenoma, dosed 96 weeks, study length 96 weeks) is “positive”. The carcinogen call was “positive” (rat, strain F344/DuCrj, males, in feed, site: stomach, glandular, lesion: several types, types named in the paper, dosed 51 weeks, study length 52 weeks); “negative (inactive)” (rat, strain Fischer 344, males, in drinking water, site: urinary bladder, lesion: one or several types, types not named, dosed 78 weeks, study length 78 weeks); “positive” (rat, strain SD(Crj:CD) Sprague-Dawley, males, in feed, site: stomach, glandular, lesion: adenoma, dosed 104 weeks, study length 104 weeks); “positive” (rat, strain WKY/NCrj (Wistar), males, in feed, site: stomach, glandular, lesion: adenoma, dosed 104 weeks, study length 104 weeks).

On to `CCCCCC(/C=C/C=C\CCCCCCCC(=O)OC)OO` (stereo unspecified), for which the carcinogen call reads like this: (rat, strain Wistar, males, by gavage, site: gastrointestinal tract, lesion: several types, types named in the paper, dosed 30 weeks, study length 87 weeks) “negative (inactive)”; (rat, strain Wistar, males, by gavage, site: liver, lesion: one or several types, types not named, dosed 30 weeks, study length 87 weeks) “negative (inactive)”.

For the compound `CN(N=O)c1ccc(C=Cc2ccnc3ccccc23)cc1`, the TD50 is 0.468 mg/kg/day (rat, strain Fischer, females, in feed, site: liver, lesion: hyperplastic nodule, dosed 34 weeks, study length 52 weeks); 4.37 mg/kg/day (rat, strain Fischer, males, in feed, site: liver, lesion: carcinoma, dosed 34 weeks, study length 52 weeks); 1.38 mg/kg/day (rat, strain Fischer, males, in feed, site: liver, lesion: hyperplastic nodule, dosed 34 weeks, study length 52 weeks).

`Cc1c(C)c2c(c(C)c1O)CCC(C)(CCCC(C)CCCC(C)CCCC(C)C)O2` (stereo unspecified): the carcinogen call is “negative (inactive)” (rat, strain F344/DuCrj, females, in feed, site: colon, lesion: one or several types, types not named, dosed 54 weeks, study length 54 weeks); “negative (inactive)” (rat, strain F344/DuCrj, females, in feed, site: mammary gland, lesion: one or several types, types not named, dosed 54 weeks, study length 54 weeks); “negative (inactive)” (rat, strain F344/DuCrj, males, in feed, site: esophagus, lesion: one or several types, types not named, dosed 52 weeks, study length 52 weeks); “negative (inactive)” (rat, strain F344/DuCrj, males, in feed, site: forestomach, lesion: one or several types, types not named, dosed 52 weeks, study length 52 weeks); “negative (inactive)” (rat, strain F344/DuCrj, males, in feed, site: liver, lesion: one or several types, types not named, dosed 52 weeks, study length 52 weeks).

Consider `C[C@@H]1C[C@H](C)CN(S(=O)(=O)c2ccc(Cl)c(C(=O)O)c2)C1`, for which the TD50 (rat, strain Fischer 344, males, in feed, site: liver, lesion: hepatocellular carcinoma, dosed 70 weeks, study length 71 weeks) was 4.85 mg/kg/day.
